Earlier results on 62 molecules are cited in the CATMoS acute toxicity set (Mansouri et al. 2021).

The structures appear in SMILES notation. Several values for one entry are separate records, joined by “and”; a condition that tells them apart may be missing. Identical values can stand only once.

The series is described as follows: rat acute oral toxicity. Conditions: in vivo.
With `CCOP(=S)(OCC)SC(C(=O)OCCF)c1ccccc1` (configuration not stated), the LD50 – broadly, the dose expected to kill half of the subjects tested – was 5 mg/kg.

Consider `OC1CCN(c2ccc(-c3ccc(Cl)cc3Cl)nn2)CC1`, for which the LD50 was 300 mg/kg.

Turning to `CCOP(=O)(OCC)SCc1ccccc1`, the LD50 is 660 mg/kg.

For `CCCCC(CC)COC(C[n+]1ccccc1)c1ccc(C2CCCC2)cc1` (configuration not stated), the LD50 is 250 mg/kg.

For the molecule `CCOP(=O)(OCC)OC(C)=CC(=O)OC(C)c1ccccc1` (configuration not stated), the median lethal dose (LD50) was 65 mg/kg.

Regarding `N#CCCCCC#N`, the LD50 is 155 mg/kg.

On to `CCOP(=S)(OCC)SCC(=O)NC(C)C`, for which the LD50 is 8 mg/kg.

Consider `CC1(C)CC1CC1C(=O)N(c2ccccc2)N(c2ccccc2)C1=O` (configuration not stated), for which the LD50 is 800 mg/kg.

`CCCCCCc1ccc(C(C[n+]2ccccc2)OCC(CC)CCCC)cc1` (configuration not stated): the LD50 is 250 mg/kg.

Take `CC(C)CCOC(CO)CC(C)C` (configuration not stated): the LD50 is 5410 mg/kg.

Consider `COP(=O)(NC(=O)CCCCl)SC` (configuration not stated), for which the LD50 was 3 mg/kg.

As for `CC[Se][Se]CC`, the LD50 is 90 mg/kg.

Regarding `CCCCCCCCSC(=O)Oc1cc(Cl)nnc1-c1ccccc1`, the LD50 was 1970 mg/kg.

As to `O=C(O)Cc1ccccc1Oc1c(Cl)c(Cl)cc(Cl)c1Cl`, the median lethal dose (LD50) was 303 mg/kg.

With `O=C(O)c1ccccc1Nc1cccc(C(F)(F)F)c1`, the LD50 was 249 mg/kg.

As for `COC(=O)COc1ccc2ccccc2c1`, the LD50 was 2800 mg/kg.

As for `CCO[Si](CCl)(OCC)OCC`, the LD50 was 2400 mg/kg.

In the case of `CC(C)NCC(O)COc1ccc(CCOCC2CC2)cc1` (configuration not stated), the LD50 was 998 mg/kg.

For `CCOP(=O)(OCC)SCCS(=O)CC` (configuration not stated), the LD50 is 2 mg/kg.

For the molecule `NCCNCCNCc1ccccc1O`, the LD50 was 2300 mg/kg.

With `C=CC(=O)OCCCCCCCCCC`, the LD50 was 6460 mg/kg.

As to `CC[N+](CC)(CC)CC`, the LD50 was 2630 mg/kg.

As for `Cc1cccc(Cl)c1NC(=O)/C=C1\SCC(=O)N1C`, the LD50 is 1350 mg/kg.

For the molecule `O=C(O)CC1(CO)CCCCC1`, the LD50 was 20 mg/kg.

As to `C[N+](C)(C)[O-]`, the 50% lethal dose (LD50) was 8700 mg/kg.

As for `O=C(O)/C=C/c1ccc(Cn2ccnc2)cc1`, the LD50 is 4160 mg/kg.

As for `CCCOP(=O)(SCCC)SCCC`, the LD50 was 129 mg/kg.

Consider `OCC(CBr)(CBr)CBr`, for which the 50% lethal dose (LD50) is 1630 mg/kg.

With `CNC(=O)Oc1c(C(C)C)ccc(C)c1N(C)C`, the LD50 is 67 mg/kg.

In the case of `CN(C)CCCN1c2ccccc2C(C)(C)c2ccccc21`, the 50% lethal dose (LD50) was 1670 mg/kg and 1850 mg/kg.

Take `CN1CCN(CC/C=C2/c3ccccc3Sc3ccc(S(=O)(=O)N(C)C)cc32)CC1`: the LD50 is 410 mg/kg.

As to `CCOC(=O)CSP(=O)(OCC)OCC`, the LD50 is 45 mg/kg.

As to `CCS(=O)(=O)CCn1c([N+](=O)[O-])cnc1C`, the LD50 is 2710 mg/kg.

Turning to `CCO[Si](C)(CCCCN)OCC`, the LD50 is 6500 mg/kg.

With `c1ccc(N=Nc2ccccc2)cc1`, the LD50 is 1000 mg/kg.

For `O=P(O)(O)CCCl`, the LD50 was 2200 mg/kg.

Consider `CCCN(CCC)C(=O)C(CCC(=O)NCCCOC(=O)Cc1c(C)n(C(=O)c2ccc(Cl)cc2)c2ccc(OC)cc12)NC(=O)c1ccccc1` (configuration not stated), for which the LD50 is 370 mg/kg.

On to `O=C(CCCN1CC=C(n2c(=O)[nH]c3ccccc32)CC1)c1ccc(F)cc1`, for which the LD50 was 750 mg/kg.

Turning to `CC(C)NCCCC1(C(N)=O)c2ccccc2-c2ccccc21`, the LD50 was 82 mg/kg.

For the molecule `COC(=O)Nc1nc2ccccc2n1C(=O)NCCCCCC#N`, the LD50 is 2500 mg/kg.

For the molecule `CC(C(=O)O)c1cccc2c(-c3ccccc3)coc12` (configuration not stated), the LD50 is 950 mg/kg.

Take `Cc1cncc(CN2CCC(=C3c4ccc(Cl)cc4CCc4cccnc43)CC2)c1`: the LD50 was 1000 mg/kg.

`COc1ccc2c(c1)OC(C)(C)[C@H](c1ccccc1)[C@H]2c1ccc(OCCN)cc1`: the median lethal dose (LD50) is 500 mg/kg.

Regarding `CCCP(=O)(CCC)CCC`, the median lethal dose (LD50) is 1410 mg/kg.

In the case of `NC1=NCC(CN2CCN(c3ccccc3)CC2)O1` (configuration not stated), the LD50 was 575 mg/kg.

Take `NS(=O)(=O)c1ccccc1`: the 50% lethal dose (LD50) is 991 mg/kg.

Consider `c1ccc2c(c1)OCCOCCOc1ccccc1OCCOCCO2`, for which the LD50 was 2600 mg/kg.

For `CC(=O)Nc1ccc(CC(=O)O)cc1`, the LD50 was 14800 mg/kg.

In the case of `CNc1nc(NC(C)C)nc(OC)n1`, the LD50 was 2400 mg/kg.

Regarding `CC(=O)Nc1ccc(C(=O)CCl)cc1`, the LD50 was 2150 mg/kg.

Consider `C=C(C)C(=O)OCCOC(=O)C(=C)C`, for which the LD50 is 3300 mg/kg.

Turning to `O=C(Cn1ccnc1)c1ccc2c(c1)Cc1ccccc1-2`, the 50% lethal dose (LD50) was 4550 mg/kg.

For the molecule `CC(C)CC(=O)OCCc1ccccc1`, the LD50 was 6220 mg/kg.

With `CCCCCC(C)=O`, the LD50 is 1670 mg/kg.

With `COP(=O)(OC)SC(CC(=O)OC(C)C)C(=O)OC(C)C` (configuration not stated), the LD50 was 120 mg/kg.

As to `CC(C)NCC(O)c1ccc(NS(C)(=O)=O)cc1` (configuration not stated), the LD50 is 3450 mg/kg.

For `Nc1nc(N)nc(-c2cc(Cl)ccc2Cl)n1`, the LD50 was 2900 mg/kg.

As to `OCC1CCCCO1` (configuration not stated), the LD50 was 3730 mg/kg.

As to `COC(=O)C1(O)c2ccccc2-c2ccc(Cl)cc21` (configuration not stated), the LD50 is 3100 mg/kg.

On to `CCOP(=O)(OCC)ON1C(=O)c2cccc3cccc(c23)C1=O`, for which the LD50 is 70 mg/kg.

Take `CN=C(O)O/N=C1/COCS1`: the LD50 is 49 mg/kg.

For `Nc1nc(N)c2nc(-c3ccccc3)c(N)nc2n1`, the median lethal dose (LD50) is 400 mg/kg.
